# Data published in paper PMC5084075 (ACS Central Science, 2016).
# Read-outs that look alike come from different tables or passages of the source.
# Key:
# [1] = in vitro; set-up: metabolic stability in mouse liver microsomes, LC-MS, NADPH, 0.4 mg/mL protein; conditions: liver microsomes, mouse liver microsomes
# Protocol: (§1) The two original GSK hits (OSM-S-5 and -6) and six NN compounds were evaluated for their kinetic solubility in phosphate buffer and their metabolic stability in human liver microsomes (Table SB5, Data Sets S20 and S21).
# [2] = system: Plasmodium falciparum Pfal (strain not named in column head); assay: microbe, parasite or virus in culture; set-up: asexual blood stage P. falciparum whole-cell growth inhibition
# Protocol: To confirm the promise of the two starting points OSM-S-5 and -6, they were evaluated against 3D7 (drug-sensitive) and K1 (chloroquine resistant) strains of Plasmodium falciparum in a whole cell assay and against HEK-293 cells as a cytotoxicity marker (Table SB1, Biological Protocols; tables with the prefix “SB” may be found in the Supporting Information). Biological data may be browsed in a static data set taken as a snapshot for this paper (Data Sets S1 (Excel), S2 (SDF)), online in a database constructed through periodic batch uploads,[68] or in a “living database” to which may be added future data;[69] the latter may be visualized in a web browser[70] using an open source system that was recently deployed in the Wikipedia Chemical Structure Explorer,[71] or the data may be downloaded and visualized offline with proprietary (Figure S4)[72] or open source (Figure S5)[73] tools). The evaluation was performed in three different institutions using different assays and widely employed controls; controls are important to assess reproducibility and interassay variability[74] but also to minimize possible bias in evaluating compounds where there are pre-existing data from other researchers already in the public domain (Figure S6).[75]
# [3] = in vitro; set-up: metabolic stability in human liver microsomes, LC-MS, NADPH, 0.4 mg/mL protein; conditions: liver microsomes, human liver microsomes
# Protocol: as §1
# [4] = read-out: 0.4 / CLint, in vitro / (mL/min/mg protein)
# [5] = read-out: Protein Conc. (mg/mL): / Degradation half-life /
structure (smiles),measurement,setting,value
Nc1ncnc2cc(-c3cccc(S(N)(=O)=O)c3)sc12 [OSM-S-106],microsomal CLint,[1]; [4],0.0471 mL/min/mg
same,half-life,[1]; [5],36.8 min
same,IC50,[2],36 nM
same,microsomal CLint,[3]; [4],< 0.007 mL/min/mg
same,half-life,[3]; [5],> 247 min
